In patent US7635491B2, “Method for administering selenium for treating patients suffering from systemic inflammatory response syndrome (SIRS), and composition for implementing the treatment” (priority 1998, dated 2009):

Test system: severe systemic inflammatory response syndrome (SIRS)
Assay: Treatment of intensive-care patients with severe SIRS / septic shock by continuous administration of sodium selenite (case reports)
Type: in vivo, human
Protocol: A patient, 75 kg, chronic alcoholic with no history of icteroascitic, hemorrhagic or encephalopathic compensation, was admitted to postoperative intensive care with generalized purulent peritonitis from colonic perforation during an attack of diverticular sigmoiditis.
His initial hemodynamics were maintained by perfusion. […] There was a moderate renal insufficiency. An adapted empirical antibiotic therapy was begun, and modified after 48 hours in view of the antiobiograms. At 24 hours severity indexes were IGS II 29, APACHE II 17 and SOFA score was 5. One day after the operation, the situation worsened rapidly with onset of a state of shock with lactic acidosis 5 μmol/l requiring administration of dopamine then rapidly noradrenaline up to 4 mg/h (0.9 μg/kg/min). There was a deterioration of respiratory state requiring increase of the FiO2 because of the onset of an acute adult respiratory distress syndrome (ARDS). As soon as the necessity of noradrenaline administration was recognized, a treatment with sodium selenite by continuous administration was begun at a dose of 4 mg of atomic selenium equivalent over the first 24 hours, followed by continuous administration of sodium selenite at a dose of 1 mg of atomic selenium equivalent for 10 days.
A patient, depressive, anorexic, 51 kg and 1.75 m tall, was admitted on a tentative diagnosis of drug-induced suicide with ingestion of a large amount of analgesics and sedatives. The diagnosis was rapidly changed to generalized purulent peritonitis from a perforated gastric ulcer. They were transferred to postoperative intensive care. There was also a shock condition requiring perfusion and introduction of catechol amines as noradrenaline and dolbutamine; lactic acidosis at 6 μmol/l. Antibacterial and antifungal antibiotic therapy was performed. Diuresis was maintained under diuretics. One hour after the start of noradrenaline administration, a treatment with sodium selenite by continuous administration was begun at a dose of 4 mg of atomic selenium equivalent over the first 24 hours, followed by continuous administration of sodium selenite at a dose of 1 mg of atomic selenium equivalent for 10 days. At 24 hours the severity indexes were IGS II 44, APACHE II 35. The SOFA score was 8.
A patient, presenting major alcohol-tobacco addiction (more than 1 liter of wine per day, 2 packets of cigarettes per day), chronic BPCO respiratory insufficiency, stage 2 arteritis of the lower limbs and deterioration in general health for several months with a productive cough, was transferred to intensive care after a short stay in general medicine. At admission there was a respiratory distress requiring emergency intubation-ventilation. Blood gases confirmed major respiratory acidosis. The patient was feverish. There was a hyperleucocytosis of 24 000 leucocytes of which 88% were polymorphonuclear cells. Blood pressure was stable under perfusion, however there were blotches on the knees. There were no coagulation problems nor renal insufficiency. At 24 hours IGS II was 41, APACHE II 26, and SOFA score 8. Lung samples taken by protected telescopic brush and brochoalveolar washing confirmed the diagnosis of community-acquired pneumonia: 47% of cells infected, Haemophilus influenza β-lactamase negative and wild-type streptococcal anginosis.
The immediate development was marked by a rapid deterioration of respiratory state with necessity of ventilation at FiO2 100%, PEP 8. In addition, very substantial perfusion was necessary with measurement of pressure by right catheterization. Dopamine had to be administered at 10 μg/kg/min. After 8 hours dopamine administration, a treatment with sodium selenite by continuous administration was begun at a dose of 4 mg of atomic selenium equivalent over the first 24 hours, followed by continuous administration of sodium selenite at a dose of 1 mg of atomic selenium equivalent for 10 days. […]

O=[Se](O)O [sodium selenite, Sodium selenite [Na2O3Se]]
left intensive care, time after the operation (Example 1): 10 days | platelet level (Example 1, no disseminated intravascular coagulation): higher than 150 000 platelets/mm^3 | extubation, time after the operation (Example 2): 20 days | platelet level (Example 2): 50% | time to regression of the shock condition (Example 2: patient, purulent peritonitis, shock, 4 mg atomic selenium equivalent over first 24 hours, then 1 mg for 10 days): 24 h | hyperlactatemia, maximum (then reduced as from the second day) (Example 3): 10 µmol/L | thrombopenia, platelets (Example 3, moderate CIVD): 7500 platelets/mm^3
